Values of other authors as cited in patent US20060063742A1, “Method of treatment for or protection against lymphedema” (priority 2004, published 2006).

Key:
mice = conditions: intravenously, doses higher than 3750 mg/kg
dogs = conditions: intravenously, doses higher than 3750 mg/kg
humans = conditions: doses exceeding 40 g/m^2

**Q.** With O=S(=O)([O-])CCSSCCS(=O)(=O)[O-].[Na+].[Na+] [Dimesna, disodium 2,2′-dithiobis ethane sulfonate] as the molecule, how does the adverse effects (mice) read?
**A.** no adverse effects

**Q.** What about the adverse effects (dogs) of the same molecule?
**A.** no adverse effects

**Q.** And the adverse effects (humans)?
**A.** no adverse effects

**Q.** For [Cl-].[Na+] [common table salt], which “accepted oral LD50” value is on record?
**A.** 3750 mg/kg
